Measurements: patent US9505728B2, “Triazolone compounds and uses thereof” (INCEPTION 2, INC., priority 2012, dated 2016)

Target: T1, Human PPARα (Homo sapiens, UniProt Q07869)
T1 construct: host or cells: proprietary non-human mammalian cells
T1 sequence (Q07869 1-468): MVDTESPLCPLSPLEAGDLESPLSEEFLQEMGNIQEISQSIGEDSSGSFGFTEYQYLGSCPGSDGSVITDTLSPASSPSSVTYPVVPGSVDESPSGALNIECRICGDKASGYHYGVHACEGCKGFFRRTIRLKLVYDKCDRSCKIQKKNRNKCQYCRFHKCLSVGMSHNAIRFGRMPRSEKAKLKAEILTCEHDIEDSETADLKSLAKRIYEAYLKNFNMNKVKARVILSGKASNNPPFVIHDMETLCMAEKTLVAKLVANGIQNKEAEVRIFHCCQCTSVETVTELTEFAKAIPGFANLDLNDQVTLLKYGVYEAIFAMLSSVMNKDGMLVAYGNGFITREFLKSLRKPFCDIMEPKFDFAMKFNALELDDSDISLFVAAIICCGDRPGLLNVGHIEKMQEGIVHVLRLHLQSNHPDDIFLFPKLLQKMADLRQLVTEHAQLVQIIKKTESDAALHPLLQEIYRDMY
Test: Human PPARα Reporter Assay (luciferase)
Type: cell-based
Conditions: human PPARα reporter cells, overnight incubation, antagonism; read-out: Luciferase IC50
Outline: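 Agonist or antagonist activity read as luciferase light from engineered reporter cells carrying human PPARα and a responsive reporter gene. Cells got compound immediately on dispensing, incubated overnight, then treatment media swapped for luciferase detection reagent.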

SMILES	IC50 [nM]
CCn1c(CCCc2ccc(-c3cccc(NC(=O)NCc4ccccc4)n3)cc2)nn(Cc2ccc(C(C)(C)C)cc2)c1=O [Example 155, 1-Benzyl-3-(6-(4-(3-(1-(4-(tert-butyl)benzyl)-4-ethyl-5-oxo-4,5-dihydro-1H-1,2,4-triazol-3-yl)propyl)phenyl)pyridin-2yl)urea]	362
CCn1c(CCCc2ccc(-c3ncc(N)cc3C(F)(F)F)cc2)nn(Cc2ccc(C(C)(C)C)cc2)c1=O [Example 156, 3-(3-{4-[5-Amino-3-(trifluoromethyl)(2-pyridyl)]phenyl}propyl)-1-{[4-(tert-butyl)phenyl]methyl}-4-ethyl-1,2,4-triazolin-5-one]	684
CCn1c(CCCc2ccc(-c3ccc(OC)c(CC(=O)O)c3)c(OC)c2)nn(Cc2ccc(C(C)(C)C)cc2)c1=O [Example 159, 2-(4′-(3-(1-(4-(tert-Butyl)benzyl)-4-ethyl-5-oxo-4,5-dihydro-1H-1,2,4-triazol-3-yl)propyl)-2′,4-dimethoxy-[1,1′-biphenyl]-3-yl)acetic acid]	410
CCn1c(CCCc2ccc(-c3ccc(NC(=O)NS(=O)(=O)c4ccccc4)cn3)cc2)nn(Cc2ccc(C(C)(C)C)cc2)c1=O [Example 160, N-((6-(4-(3-(1-(4-(tert-Butyl)benzyl)-4-ethyl-5-oxo-4,5-dihydro-1H-1,2,4-triazol-3-yl)propyl)phenyl)pyridin-3-yl)carbamoyl)benzenesulfonamide]	429
CCn1c(CCCc2ccc(-c3ccc(C(F)(F)F)c(N)n3)cc2)nn(Cc2ccc(C(C)(C)C)cc2)c1=O [Example 161, 3-(3-{4-[6-Amino-5-(trifluoromethyl)(2-pyridyl)]phenyl}propyl)-1-{[4-(tert-butyl)phenyl]methyl}-4-ethyl-1,2,4-triazolin-5-one]	638
CCn1c(CCCc2ccc(-c3cnc(OC)c(C(=O)O)n3)cc2)nn(Cc2ccc(C(C)(C)C)cc2)c1=O [Example 162, 6-(4-(3-(1-(4-(tert-Butyl)benzyl)-4-ethyl-5-oxo-4,5-dihydro-1H-1,2,4-triazol-3-yl)propyl)phenyl)-3-methoxypyrazine-2-carboxylic acid]	630

Compounds with a lower IC50, results first:

IC50 [nM]	SMILES
202	CCn1c(CCCc2ccc(-c3ccc(C)c(C(=O)O)n3)cc2)nn(Cc2ccc(C(C)(C)C)cc2)c1=O [Example 165, 6-(4-(3-(1-(4-(tert-Butyl)benzyl)-4-ethyl-5-oxo-4,5-dihydro-1H-1,2,4-triazol-3-yl)propyl)phenyl)-3-methylpicolinic acid]
184	CCn1c(CCCc2ccc(-c3ccc(OC)c(CC(=O)O)c3)cc2OC)nn(Cc2ccc(C(C)(C)C)cc2)c1=O [Example 158, 2-(4′-(3-(1-(4-(tert-Butyl)benzyl)-4-ethyl-5-oxo-4,5-dihydro-1H-1,2,4-triazol-3-yl)propyl)-3′,4-dimethoxy-[1,1′-biphenyl]-3-yl)acetic acid]
94	CCn1c(CCCc2ccc(-c3ccc(OC)c(CC(=O)O)c3)c(C)c2)nn(Cc2ccc(C(C)(C)C)cc2)c1=O [Example 157, 2-(4′-(3-(1-(4-(tert-Butyl)benzyl)-4-ethyl-5-oxo-4,5-dihydro-1H-1,2,4-triazol-3-yl)propyl)-4-methoxy-2′-methyl-[1,1′-biphenyl]-3-yl)acetic acid]
20	CCn1c(CCCc2ccc(-c3ccc(C(F)(F)F)c(NS(=O)(=O)c4ccccc4)n3)cc2)nn(Cc2ccc(C(C)(C)C)cc2)c1=O [Example 164, 1-{[4-(tert-Butyl)phenyl]methyl}-4-ethyl-3-[3-(4-{6-[(phenylsulfonyl)amino]-5-(trifluoromethyl)(2-pyridyl)}phenyl)propyl]-1,2,4-triazolin-5-one]
15	CCn1c(CCC(F)(F)c2ccc(-c3ccc(OC)c(CC(=O)O)c3)cc2)nn(Cc2ccc(C(C)(C)C)cc2)c1=O [Example 163, 2-(4′-(3-(1-(4-(tert-Butyl)benzyl)-4-ethyl-5-oxo-4,5-dihydro-1H-1,2,4-triazol-3-yl)-1,1-difluoropropyl)-4-methoxy-[1,1′-biphenyl]-3-yl)acetic acid]
